Target: T1, Human coagulation factor (F)XI (Homo sapiens, UniProt P03951)
T1 construct: purchased Haematologic Technologies Inc. (FXI); Enzyme Research Laboratories (FXIIa) HCXI-150 (FXI); HFXIIa (FXIIa)
Test: Inhibition of FXIIa mediated activation of FXI (activation of human Factor XI to XIa by human Factor α-XIIa)
Assay type: biochemical
Settings: human FXI pre-incubated with compound 30 min at 22° C., activation by human FXIIa 60 min, z-GPR-AFC substrate fluorescence, 4 parameter logistic fit; read-out: Inhibition of FXIIa meditated activation of FXI
Method in brief: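 Human FXI (46 nM stock) preincubated 30 min at 22 °C with compound (10-point, 3.333-fold dilutions), then activated by human α-FXIIa (30 nM stock) for 60 min in HEPES/NaCl/CaCl2/PEG buffer, pH 7.4. After quench with a selective FXIIa inhibitor, FXIa generation read by z-GPR-AFC cleavage (60 min, fluorescence 405/510 nm); EC50 from 4-parameter logistic fit.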

T1 sequence (P03951 19-625): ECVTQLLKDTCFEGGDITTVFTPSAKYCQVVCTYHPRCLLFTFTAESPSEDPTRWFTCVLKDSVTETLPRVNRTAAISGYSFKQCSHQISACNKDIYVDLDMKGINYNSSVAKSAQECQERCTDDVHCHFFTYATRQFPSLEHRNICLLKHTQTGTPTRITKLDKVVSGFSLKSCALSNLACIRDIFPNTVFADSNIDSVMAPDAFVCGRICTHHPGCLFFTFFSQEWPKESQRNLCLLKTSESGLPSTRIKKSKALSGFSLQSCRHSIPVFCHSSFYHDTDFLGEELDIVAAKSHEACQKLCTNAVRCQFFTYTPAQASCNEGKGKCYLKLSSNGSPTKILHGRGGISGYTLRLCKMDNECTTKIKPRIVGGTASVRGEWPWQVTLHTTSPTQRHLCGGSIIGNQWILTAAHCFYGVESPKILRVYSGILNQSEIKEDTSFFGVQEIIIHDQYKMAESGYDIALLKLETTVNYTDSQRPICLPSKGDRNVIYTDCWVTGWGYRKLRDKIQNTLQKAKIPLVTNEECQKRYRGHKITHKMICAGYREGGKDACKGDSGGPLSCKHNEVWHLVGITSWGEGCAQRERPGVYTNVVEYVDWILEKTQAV

| EC50 | SMILES |
| --- | --- |
| 32.6 nM | O=C(c1cc(C(=O)N2CCCCC2)c2cc(OCc3nc4ccccc4s3)ccc2n1)N1CCC(c2ncc[nH]2)CC1 [Example 74, (4-(1H-imidazol-2-yl)-piperidin-1-yl)(6-(benzo-[d]thiazol-2-ylmethoxy)-4-(piperidine-carbonyl)-quinolin-2-yl)methanone] |
| 18.8 nM | O=C(c1cc(C(=O)N2CCCCC2)c2cc(OCc3nc4ccccc4s3)c(F)cc2n1)N1CCC(n2cccn2)CC1 [Example 75, (4-(1H-pyrazol-1-yl)piperidin-1-yl)(6-(benzo[d]thiazol-2-ylmethoxy)-7-fluoro-4-(piperidine-1-carbonyl)quinolin-2-yl)methanone] |
| 10.2 nM | N#CC1(n2cccn2)CCN(C(=O)c2cc(C(=O)N3CCCCC3)c3cc(OCc4ccc5snnc5c4)ccc3n2)CC1 [Example 76, 1-(6-(benzo[d][1,2,3]thiadiazol-5-ylmethoxy)-4-(piperidine-1-carbonyl)quinoline-2-carbonyl)-4-(1H-pyrazol-1-yl)piperidine-4-carbonitrile] |
